Common to all, as to experiment: TGFα-shedding assay-based GPCR screening with chimeric Gα subunit proteins
Format in all cases: cell-based
Settings in all cases: 10µM, Favipiravir 100μM

In assay [1] the target is T1, 348 GPCRs (Homo sapiens, UniProt Q86SQ4).
T1 construct: expressed in transfected cells; host or cells: HEK293A
T1 sequence (Q86SQ4 38-1221): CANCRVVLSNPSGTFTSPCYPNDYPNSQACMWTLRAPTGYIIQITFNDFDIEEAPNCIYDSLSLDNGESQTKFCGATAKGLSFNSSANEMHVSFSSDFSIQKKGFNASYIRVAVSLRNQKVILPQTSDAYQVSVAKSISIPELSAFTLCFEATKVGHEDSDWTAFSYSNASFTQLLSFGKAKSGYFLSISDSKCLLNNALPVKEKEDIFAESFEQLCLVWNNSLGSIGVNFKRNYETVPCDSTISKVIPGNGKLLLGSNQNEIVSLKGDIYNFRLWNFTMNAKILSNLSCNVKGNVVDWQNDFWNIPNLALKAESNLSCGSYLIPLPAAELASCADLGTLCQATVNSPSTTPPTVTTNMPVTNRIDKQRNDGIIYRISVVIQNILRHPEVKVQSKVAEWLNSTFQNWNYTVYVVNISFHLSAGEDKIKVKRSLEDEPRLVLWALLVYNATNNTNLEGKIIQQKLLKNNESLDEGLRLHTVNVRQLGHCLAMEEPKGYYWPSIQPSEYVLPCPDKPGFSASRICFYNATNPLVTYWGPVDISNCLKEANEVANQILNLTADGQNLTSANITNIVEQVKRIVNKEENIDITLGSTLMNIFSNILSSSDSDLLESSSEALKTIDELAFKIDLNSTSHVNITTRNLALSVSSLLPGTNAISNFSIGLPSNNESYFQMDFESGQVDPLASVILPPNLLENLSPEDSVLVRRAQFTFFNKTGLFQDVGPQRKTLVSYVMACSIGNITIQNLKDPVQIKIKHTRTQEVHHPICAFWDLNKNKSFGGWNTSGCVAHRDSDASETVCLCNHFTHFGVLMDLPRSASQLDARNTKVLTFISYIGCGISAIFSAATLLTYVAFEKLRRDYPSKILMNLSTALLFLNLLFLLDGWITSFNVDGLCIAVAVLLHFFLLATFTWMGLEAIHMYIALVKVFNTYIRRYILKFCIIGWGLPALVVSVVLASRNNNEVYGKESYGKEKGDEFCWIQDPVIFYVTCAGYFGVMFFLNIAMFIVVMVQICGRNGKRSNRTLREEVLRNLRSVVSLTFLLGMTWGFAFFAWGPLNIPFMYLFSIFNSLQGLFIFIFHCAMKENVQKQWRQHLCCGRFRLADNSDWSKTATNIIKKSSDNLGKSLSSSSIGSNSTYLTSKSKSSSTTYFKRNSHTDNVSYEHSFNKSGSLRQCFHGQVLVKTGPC

The target of assay [2] is T2, 348 GPCRs (Homo sapiens, UniProt O95977).
T2 sequence (O95977 1-384): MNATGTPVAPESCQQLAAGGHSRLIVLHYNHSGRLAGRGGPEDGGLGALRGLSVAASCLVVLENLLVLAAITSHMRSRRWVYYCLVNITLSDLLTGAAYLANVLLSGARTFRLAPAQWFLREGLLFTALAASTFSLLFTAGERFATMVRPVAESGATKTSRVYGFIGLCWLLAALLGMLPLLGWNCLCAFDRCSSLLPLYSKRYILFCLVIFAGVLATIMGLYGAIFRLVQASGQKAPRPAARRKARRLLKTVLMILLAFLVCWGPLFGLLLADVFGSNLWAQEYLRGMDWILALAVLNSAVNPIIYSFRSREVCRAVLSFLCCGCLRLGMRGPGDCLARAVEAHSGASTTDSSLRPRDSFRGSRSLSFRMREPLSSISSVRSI

For assay [3], the target named is 348 GPCRs (Homo sapiens, UniProt P35372).
In assay [4] the target is T3, 348 GPCRs (Homo sapiens, UniProt O00590).
T3 construct: expressed in transfected cells; host or cells: HEK293A
T3 sequence (O00590 1-384): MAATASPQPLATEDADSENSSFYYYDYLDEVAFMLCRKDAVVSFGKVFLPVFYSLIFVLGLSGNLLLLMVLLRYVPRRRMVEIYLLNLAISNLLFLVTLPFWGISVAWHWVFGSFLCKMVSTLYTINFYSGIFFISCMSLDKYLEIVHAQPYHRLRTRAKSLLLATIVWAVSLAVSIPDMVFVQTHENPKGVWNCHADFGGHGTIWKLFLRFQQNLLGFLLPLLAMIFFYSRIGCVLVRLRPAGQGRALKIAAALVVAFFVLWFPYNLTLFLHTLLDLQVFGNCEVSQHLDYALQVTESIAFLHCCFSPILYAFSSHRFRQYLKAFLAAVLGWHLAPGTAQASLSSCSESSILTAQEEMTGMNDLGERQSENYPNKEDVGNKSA

Where [5] appears, read: GPR126 (Adhesion G Protein-Coupled Receptor G6 (ADGRG6)), read-out: % GPCR activation compared to TPA.
Setting [6] is: S1PR4 (sphingosine-1-phosphate receptor 4), read-out: % GPCR activation compared to TPA.
The mark [7] stands for this setting: CCBP2 (chemokine binding protein 2), read-out: % GPCR activation compared to TPA.
Setting [8] is: read-out: % GPCR activation compared to TPA, GPR126 (Adhesion G Protein-Coupled Receptor G6 (ADGRG6)).
The mark [9] stands for this setting: read-out: % GPCR activation compared to TPA, S1PR4 (sphingosine-1-phosphate receptor 4).
The mark [10] stands for this setting: OPRM1, read-out: % GPCR activation compared to TPA, OPRM1 (opioid receptor, mu 1 (MOR1)).
[11] abbreviates: read-out: % GPCR activation compared to TPA, CCBP2 (chemokine binding protein 2).

The record followed here is paper PMC10175918 (Communications Biology, 2023).

Read-outs that look alike come from different tables or passages of the source.

Sequence of 348 GPCRs (Homo sapiens, UniProt P35372) (P35372 whole entry): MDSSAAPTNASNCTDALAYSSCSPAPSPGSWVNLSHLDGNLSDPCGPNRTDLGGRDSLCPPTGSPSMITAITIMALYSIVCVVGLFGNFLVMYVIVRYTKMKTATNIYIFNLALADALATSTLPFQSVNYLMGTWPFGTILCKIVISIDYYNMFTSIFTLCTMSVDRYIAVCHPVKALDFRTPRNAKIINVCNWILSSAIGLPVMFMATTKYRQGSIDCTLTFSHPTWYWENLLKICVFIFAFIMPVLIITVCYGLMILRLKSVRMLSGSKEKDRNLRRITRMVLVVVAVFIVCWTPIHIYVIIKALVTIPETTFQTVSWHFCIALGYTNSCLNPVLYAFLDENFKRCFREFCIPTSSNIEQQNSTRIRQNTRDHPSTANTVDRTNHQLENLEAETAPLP

With `NC(=O)c1nc(F)cnc1O` [favipiravir, 6-fluoro-3-hydroxy-2-pyrazinecarboxamide], the activation at 100 µM at 348 GPCRs [1] (setting [5]) was -2.03%; on 348 GPCRs [4] (setting [7]) it was -6.14%. Moreover, the activation at 10 µM was -3.38% at 348 GPCRs [2] (setting [6]) and -1.89% on 348 GPCRs [3] (OPRM1, OPRM1 (opioid receptor, mu 1 (MOR1)), read-out: % GPCR activation compared to TPA).
As for `CC(C)OC(=O)[C@H](C)N[P@](=O)(OC[C@H]1O[C@@H](n2ccc(=O)[nH]c2=O)[C@](C)(F)[C@@H]1O)Oc1ccccc1` [sofosbuvir], the activation at 100 µM was -2.49% at 348 GPCRs [1] (setting [8]) and -0.681% at 348 GPCRs [4] (setting [11]). Besides, the activation at 10 µM is -2.24% at 348 GPCRs [2] (setting [9]) and -0.878% at 348 GPCRs [3] (setting [10]).
For the molecule `CCC(CC)COC(=O)[C@H](C)N[P@](=O)(OC[C@H]1O[C@@](C#N)(c2ccc3c(N)ncnn23)[C@H](O)[C@@H]1O)Oc1ccccc1` [remdesivir], the activation at 100 µM is -0.536% on 348 GPCRs [1] (setting [8]) and -7.69% on 348 GPCRs [4] (setting [11]). The results for the activation at 10 µM at 348 GPCRs [2] (setting [9]) and at 348 GPCRs [3] (setting [10]) were -2.69% and -2.36%, respectively.
Consider `N#C[C@@]1(c2ccc3c(N)ncnn23)O[C@H](CO)[C@@H](O)[C@H]1O` [GS441524], for which the activation at 100 µM at 348 GPCRs [1] (setting [5]) was -3.47%; on 348 GPCRs [4] (setting [7]), -3.26%. Besides, the activation at 10 µM on 348 GPCRs [2] (setting [6]) was -3.24%; at 348 GPCRs [3] (setting [10]), -2.75%.
The like results for `CC(C)C(=O)OC[C@H]1O[C@@H](n2ccc(NO)nc2=O)[C@H](O)[C@@H]1O` [molnupiravir] were, in that order, -3.31%, -0.55%, -2.08% and -3.97%.
